# Starred links: 1 amine or outer side, 2 acyl side, 3 side chain; linkers in the order of their positions; H or OH if unused. Positions of bridges follow the written chain, without caps; N, C: chain ends. Residues, ends and D or L forms follow the SMILES beside them. *: point of attachment. C20 diacid = O=C(O)CCCCCCCCCCCCCCCCCCC(=O)*; C18 diacid = O=C(O)CCCCCCCCCCCCCCCCC(=O)*; γGlu = O=C(O)[C@H](CCC(=O)[*:2])N[*:1]
# Test system: food intake
# Experiment: Assay (I) efficacy testing on appetite (food intake), ad libitum fed rat model
# Assay type: in vivo, Sprague Dawley (SD) rats
# Summary of the method: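 Sprague Dawley rats (200–250 g), single-housed under reversed light cycle with free food and water, got one ip, po or sc dose of 0.01–3 mg/kg just before lights-off. Individual food intake recorded hourly for 7 h, then at 24 h and sometimes 48 h; groups of 5–8, Grubbs outliers excluded.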
Structure (SMILES),Food intake reduction 0-24 h 3 nmol/kg (%) (0-24 h),Food intake reduction 24-48 h 3 nmol/kg (%) (24-48 h),"Food intake reduction 0-24 h 30 nmol/kg (%) (0-24 h, 30 nmol/kg)","Food intake reduction 24-48 h 30 nmol/kg (%) (24-48 h, 30 nmol/kg)"
"CC[C@H](C)[C@H](NC(=O)[C@@H]1CCCN1C(=O)CNC(=O)[C@H](Cc1ccccc1)NC(=O)[C@H](CC(N)=O)NC(=O)[C@H](CC(N)=O)NC(=O)[C@H](CO)NC(=O)[C@H](CO)NC(=O)[C@H](CCCNC(=N)N)NC(=O)[C@H](Cc1c[nH]cn1)NC(=O)[C@H](CC(C)C)NC(=O)[C@H](Cc1ccccc1)NC(=O)[C@H](CCC(=O)O)NC(=O)[C@H](C)NC(=O)[C@H](CC(C)C)NC(=O)[C@H](CCCNC(=N)N)NC(=O)[C@H](CCC(N)=O)NC(=O)[C@@H](NC(=O)[C@H](C)NC(=O)[C@@H]1CSSC[C@H](NC(=O)[C@H](CCC(=O)O)NC(=O)CC[C@H](NC(=O)CCCCCCCCCCCCCCCCCCC(=O)O)C(=O)O)C(=O)N[C@@H](CC(N)=O)C(=O)N[C@@H]([C@@H](C)O)C(=O)N[C@@H](C)C(=O)N[C@@H]([C@@H](C)O)C(=O)N1)[C@@H](C)O)C(=O)N[C@@H](CC(C)C)C(=O)N1CCC[C@H]1C(=O)N1CCC[C@H]1C(=O)N[C@H](C(=O)N[C@@H](CC(N)=O)C(=O)N[C@H](C(=O)NCC(=O)N[C@@H](CO)C(=O)N[C@@H](CC(N)=O)C(=O)N[C@H](C(=O)N1CCC[C@H]1C(N)=O)[C@@H](C)O)C(C)C)[C@@H](C)O [Example 10, N-alpha-[(S)-4-Carboxy-4-(19-carboxynonadecanoylamino)butyryl]-[Glu1,Glu14,His17,Arg18,Pro37]-pramlintide] ({C20 diacid-γGlu}-ECNTATCATQRLAEFLHRSSNNFGPILPPTNVGSNTP-NH2; disulfide 2-7)",50,40,–,–
"CC[C@H](C)[C@H](NC(=O)[C@@H]1CCCN1C(=O)CNC(=O)[C@H](Cc1ccccc1)NC(=O)[C@H](CC(N)=O)NC(=O)[C@H](CC(N)=O)NC(=O)[C@H](CO)NC(=O)[C@H](CO)NC(=O)[C@H](Cc1c[nH]cn1)NC(=O)[C@H](Cc1c[nH]cn1)NC(=O)[C@H](CC(C)C)NC(=O)[C@H](Cc1ccccc1)NC(=O)[C@H](CCC(=O)O)NC(=O)[C@H](C)NC(=O)[C@H](CC(C)C)NC(=O)[C@H](CCCNC(=N)N)NC(=O)[C@H](CCC(N)=O)NC(=O)[C@@H](NC(=O)[C@H](C)NC(=O)[C@@H]1CSSC[C@H](NC(=O)[C@H](CCCCN)NC(=O)CC[C@H](NC(=O)CCCCCCCCCCCCCCCCC(=O)O)C(=O)O)C(=O)N[C@@H](CC(N)=O)C(=O)N[C@@H]([C@@H](C)O)C(=O)N[C@@H](C)C(=O)N[C@@H]([C@@H](C)O)C(=O)N1)[C@@H](C)O)C(=O)N[C@@H](CC(C)C)C(=O)N1CCC[C@H]1C(=O)N1CCC[C@H]1C(=O)N[C@H](C(=O)N[C@@H](CC(N)=O)C(=O)N[C@H](C(=O)NCC(=O)N[C@@H](CO)C(=O)N[C@@H](CC(N)=O)C(=O)N[C@H](C(=O)N[C@@H](Cc1ccc(O)cc1)C(N)=O)[C@@H](C)O)C(C)C)[C@@H](C)O [Example 46, N-alpha-[(S)-4-Carboxy-4-(17-carboxyheptadecanoylamino)butyryl]-[Glu14,His17]-pramlintide] ({C18 diacid-γGlu}-KCNTATCATQRLAEFLHHSSNNFGPILPPTNVGSNTY-NH2; disulfide 2-7 (inferred); C-terminus assumed)",54,27,–,–
"CC[C@H](C)[C@H](NC(=O)[C@@H]1CCCN1C(=O)CNC(=O)[C@H](Cc1ccccc1)NC(=O)[C@H](CC(N)=O)NC(=O)[C@H](CC(N)=O)NC(=O)[C@H](CO)NC(=O)[C@H](CO)NC(=O)[C@H](CCCNC(=N)N)NC(=O)[C@H](Cc1c[nH]cn1)NC(=O)[C@H](CC(C)C)NC(=O)[C@H](Cc1ccccc1)NC(=O)[C@H](CCC(=O)O)NC(=O)[C@H](C)NC(=O)[C@H](CC(C)C)NC(=O)[C@H](CCCNC(=N)N)NC(=O)[C@H](CCC(N)=O)NC(=O)[C@@H](NC(=O)[C@H](C)NC(=O)[C@@H]1CSSC[C@H](NC(=O)[C@H](Cc2c[nH]cn2)NC(=O)CC[C@H](NC(=O)CCCCCCCCCCCCCCCCCCC(=O)O)C(=O)O)C(=O)N[C@@H](CC(N)=O)C(=O)N[C@@H]([C@@H](C)O)C(=O)N[C@@H](C)C(=O)N[C@@H]([C@@H](C)O)C(=O)N1)[C@@H](C)O)C(=O)N[C@@H](CC(C)C)C(=O)N1CCC[C@H]1C(=O)N1CCC[C@H]1C(=O)N[C@H](C(=O)N[C@@H](CC(N)=O)C(=O)N[C@H](C(=O)NCC(=O)N[C@@H](CO)C(=O)N[C@@H](CC(N)=O)C(=O)N[C@H](C(=O)N[C@@H](Cc1ccc(O)cc1)C(N)=O)[C@@H](C)O)C(C)C)[C@@H](C)O [Example 1, N-alpha-[(S)-4-Carboxy-4-(19-carboxynonadecanoylamino)butyryl]-[His1,Glu14,His17,Arg18]-pramlintide] ({C20 diacid-γGlu}-HCNTATCATQRLAEFLHRSSNNFGPILPPTNVGSNTY-NH2; disulfide 2-7 (inferred))",50,45,93,92
"CC[C@H](C)[C@H](NC(=O)[C@@H]1CCCN1C(=O)CNC(=O)[C@H](Cc1ccccc1)NC(=O)[C@H](CC(N)=O)NC(=O)[C@H](CC(N)=O)NC(=O)[C@H](CO)NC(=O)[C@H](CO)NC(=O)[C@H](Cc1c[nH]cn1)NC(=O)[C@H](Cc1c[nH]cn1)NC(=O)[C@H](CC(C)C)NC(=O)[C@H](Cc1ccccc1)NC(=O)[C@H](CCC(=O)O)NC(=O)[C@H](C)NC(=O)[C@H](CC(C)C)NC(=O)[C@H](CCCNC(=N)N)NC(=O)[C@H](CCC(N)=O)NC(=O)[C@@H](NC(=O)[C@H](C)NC(=O)[C@@H]1CSSC[C@H](NC(=O)[C@H](Cc2c[nH]cn2)NC(=O)[C@H](Cc2c[nH]cn2)NC(=O)[C@H](Cc2c[nH]cn2)NC(=O)CC[C@H](NC(=O)CCCCCCCCCCCCCCCCCCC(=O)O)C(=O)O)C(=O)N[C@@H](CCCNC(=N)N)C(=O)N[C@@H]([C@@H](C)O)C(=O)N[C@@H](C)C(=O)N[C@@H]([C@@H](C)O)C(=O)N1)[C@@H](C)O)C(=O)N[C@@H](CC(C)C)C(=O)N1CCC[C@H]1C(=O)N1CCC[C@H]1C(=O)N[C@H](C(=O)N[C@@H](CC(N)=O)C(=O)N[C@H](C(=O)NCC(=O)N[C@@H](CO)C(=O)N[C@@H](CC(N)=O)C(=O)N[C@H](C(=O)N[C@@H](Cc1ccc(O)cc1)C(N)=O)[C@@H](C)O)C(C)C)[C@@H](C)O [Example 22, N-alpha-[(S)-4-Carboxy-4-(19-carboxynonadecanoylamino)butyryl]-His-His-[His1,Arg3,Glu14,His17]-pramlintide] ({C20 diacid-γGlu}-HHHCRTATCATQRLAEFLHHSSNNFGPILPPTNVGSNTY-NH2; disulfide 4-9 (inferred))",26,5,–,–

# Reference: patent publication US8722849B2, “Polypeptides” (Novo Nordisk A/S, priority 2011, dated 2014)
